Results from US8598202B2, “Aryl-hydroxyethylamino-pyrimidines and triazines as modulators of fatty acid amide hydrolase” (Janssen Pharmaceutica NV, priority 2008, dated 2013).
Where a name gives a salt, the structure may show the parent alone.

Legend:
Rat FAAH-1 = molecular target: T1, Rat FAAH-1 (Rattus norvegicus, UniProt P97612); assay: Assay Method 2: rat FAAH-1 assay, 3H-anandamide hydrolysis in homogenate of SK-N-MC cells transfected with rat FAAH
T1 sequence (P97612 1-579): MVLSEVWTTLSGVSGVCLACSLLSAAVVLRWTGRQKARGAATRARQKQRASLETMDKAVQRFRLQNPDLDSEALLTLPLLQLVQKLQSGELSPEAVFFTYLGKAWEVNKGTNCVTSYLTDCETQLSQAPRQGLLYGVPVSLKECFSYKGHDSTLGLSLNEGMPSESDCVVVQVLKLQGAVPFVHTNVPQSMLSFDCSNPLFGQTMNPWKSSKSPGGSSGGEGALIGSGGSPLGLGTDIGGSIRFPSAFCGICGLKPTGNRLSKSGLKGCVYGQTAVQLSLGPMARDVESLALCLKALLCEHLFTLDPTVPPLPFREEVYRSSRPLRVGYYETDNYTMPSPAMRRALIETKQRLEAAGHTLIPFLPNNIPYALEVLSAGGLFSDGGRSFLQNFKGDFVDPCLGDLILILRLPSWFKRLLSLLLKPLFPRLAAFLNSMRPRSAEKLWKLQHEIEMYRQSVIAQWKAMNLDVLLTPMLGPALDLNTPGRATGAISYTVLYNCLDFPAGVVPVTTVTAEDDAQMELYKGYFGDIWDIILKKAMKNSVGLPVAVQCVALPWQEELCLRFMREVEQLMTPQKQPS

FAAH = molecular target: T2, FAAH (Homo sapiens, UniProt O00519); assay: Assay Method 1: FAAH assay, 3H-anandamide hydrolysis in homogenate of T84 cells or SK-N-MC cells transfected with human FAAH
T2 sequence (O00519 1-579): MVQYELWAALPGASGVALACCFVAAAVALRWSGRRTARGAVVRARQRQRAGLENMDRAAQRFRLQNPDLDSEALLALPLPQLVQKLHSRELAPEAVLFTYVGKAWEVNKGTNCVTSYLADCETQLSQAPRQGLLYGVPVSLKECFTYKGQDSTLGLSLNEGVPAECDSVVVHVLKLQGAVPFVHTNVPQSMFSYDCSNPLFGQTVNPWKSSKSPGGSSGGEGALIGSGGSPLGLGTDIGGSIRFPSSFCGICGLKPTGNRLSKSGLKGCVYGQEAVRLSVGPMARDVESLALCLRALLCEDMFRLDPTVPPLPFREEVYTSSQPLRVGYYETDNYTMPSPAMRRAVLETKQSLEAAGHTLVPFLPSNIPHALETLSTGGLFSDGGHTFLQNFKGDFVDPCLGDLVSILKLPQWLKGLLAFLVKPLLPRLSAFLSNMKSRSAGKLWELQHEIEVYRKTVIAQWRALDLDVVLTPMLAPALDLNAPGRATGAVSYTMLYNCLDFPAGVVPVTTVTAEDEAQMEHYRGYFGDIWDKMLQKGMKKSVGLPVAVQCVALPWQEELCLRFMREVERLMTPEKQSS

Structure (SMILES) | IC50 (Rat FAAH-1) | IC50 (FAAH)
Nc1nc(NC[C@H](O)c2ccccc2)cc(-c2ccc(C(F)(F)F)c(Cl)c2)n1 [Example 61, (1R)-2-({2-Amino-6-[3-chloro-4-(trifluoromethyl)phenyl]pyrimidin-4-yl}amino)-1-phenylethanol trifluoroacetic acid salt] | 28 nM | 6 nM
CC(=O)c1ccc(-c2cc(NCC(O)c3ccccc3)ncn2)cc1 (centres unmarked) [Example 228, 1-(4-{6-[(2-Hydroxy-2-phenylethyl)amino]pyrimidin-4-yl}phenyl)ethanone] | 66 nM | 26 nM
O=S(=O)(c1ccc(-c2cc(NC[C@H](O)c3ccccc3)ncn2)cc1)N1CCCC1 [Example 80, (1R)-1-Phenyl-2-({6-[4-(Pyrrolidin-1-ylsulfonyl)phenyl]pyrimidin-4-yl}amino)ethanol] | 665 nM | 68 nM
Cc1c(NC[C@H](O)c2ccccc2)ncnc1-c1ccc(C(F)(F)F)c(F)c1 [Example 48, (1R)-2-({6-[3-Fluoro-4-(trifluoromethyl)phenyl]-5-methylpyrimidin-4-yl}amino)-1-phenylethanol trifluoroacetic acid salt] | 1500 nM | 105 nM
OC(CNc1cc(-c2ccc(OC(F)(F)F)cc2)ncn1)c1ccc2c(c1)OCO2 (centres unmarked) [Example 127, 1-(1,3-Benzodioxol-5-yl)-2-[(6-{4-[(trifluoromethyl)oxy]phenyl}-pyrimidin-4-yl)amino]ethanol] | 112 nM | 122 nM
OC(CNc1cc(-c2c(F)cccc2F)ncn1)c1ccccc1 (centres unmarked) [Example 237, 2-[6-(2,6-Difluoro-phenyl)-pyrimidin-4-ylamino]-1-phenyl-ethanol] | > 10000 nM | > 10000 nM
COc1ccc(C(O)CNc2cc(-c3ccc(OC(F)(F)F)cc3)ncn2)cc1 (centres unmarked) [Example 111, 1-[4-(Methyloxy)phenyl]-2-[(6-{4-[(trifluoromethyl)oxy]phenyl}-pyrimidin-4-yl)amino]ethanol] | 220 nM | 122 nM
O[C@@H](CNc1cc(-c2ccc(C(F)(F)F)c(F)c2)ncn1)c1ccc(F)cc1 [Example 173, (1R)-1-(4-Fluorophenyl)-2-({6-[3-fluoro-4-(trifluoromethyl)phenyl]pyrimidin-4-yl}amino)ethanol] | 11 nM | 2 nM
CC(C)Oc1ccc(-c2cc(NC[C@H](O)c3ccccc3)ncn2)cc1Cl [Example 19, (1R)-2-[(6-{3-Chloro-4-[(1-methylethyl)oxy]phenyl}pyrimidin-4-yl)amino]-1-phenylethanol] | 12 nM | 20 nM
CNCCNc1nc(NC[C@H](O)c2ccccc2)cc(-c2ccc(C(F)(F)F)c(Cl)c2)n1 [Example 163, (1R)-2-[(6-[3-Chloro-4-(trifluoromethyl)phenyl]-2-{[2-(methylamino)ethyl]amino}pyrimidin-4-yl)amino]-1-phenylethanol hydrochloride salt] | 2000 nM | 2000 nM
COc1ccc(-c2cc(NC[C@H](O)c3ccccc3)ncn2)cn1 [Example 63, (1R)-2-{[6-(6-Methoxypyridin-3-yl)pyrimidin-4-yl]amino}-1-phenylethanol] | 2000 nM | 450 nM
O[C@@H](CNc1cc(-c2ccc3cc[nH]c3c2)ncn1)c1ccccc1 [Example 53, (1R)-2-{[6-(1H-Indol-6-yl)pyrimidin-4-yl]amino}-1-phenylethanol trifluoroacetic acid salt] | > 10000 nM | 765 nM
OC(CNc1cc(-c2ccc(C(F)(F)F)c(Cl)c2)ncn1)c1ccc2c(c1)OCCO2 (centres unmarked) [Example 199, 2-({6-[3-Chloro-4-(trifluoromethyl)phenyl]pyrimidin-4-yl}amino)-1-(2,3-dihydro-1,4-benzodioxin-6-yl)ethanol] | 120 nM | 500 nM
Cc1cc(-c2cc(NC[C@H](O)c3ccccc3)ncn2)ccc1OC(C)C [Example 46, (1R)-2-({6-[3-Methyl-4-(1-methylethoxy)phenyl]pyrimidin-4-yl}amino)-1-phenylethanol] | 26 nM | 13 nM
OC(CNc1cc(-c2ccc(C(F)(F)F)c(Cl)c2)ncn1)c1cc(-c2ccccc2)no1 (centres unmarked) [Example 207, 2-({6-[3-Chloro-4-(trifluoromethyl)phenyl]pyrimidin-4-yl}amino)-1-(3-phenylisoxazol-5-yl)ethanol] | 111 nM | 67 nM
OC(CNc1cc(-c2ccc(OC(F)(F)F)cc2)ncn1)c1cc(Cl)cc(Cl)c1 (centres unmarked) [Example 126, 1-(3,5-Dichlorophenyl)-2-[(6-{4-[(trifluoromethyl)oxy]phenyl}-pyrimidin-4-yl)amino]ethanol] | 1000 nM | 1200 nM
CCOc1ccc(-c2cc(NC[C@H](O)c3ccccc3)ncn2)cn1 [Example 64, (1R)-2-{[6-(6-Ethoxypyridin-3-yl)pyrimidin-4-yl]amino}-1-phenylethanol] | 220 nM | 50 nM
CC(C)Oc1ccc(-c2cc(NC[C@H](O)c3ccccc3)ncn2)cc1F [Example 36, (1R)-2-({6-[3-Fluoro-4-(1-methylethoxy)phenyl]pyrimidin-4-yl}amino)-1-phenylethanol trifluoroacetic acid salt] | 20 nM | 8 nM
COc1ccc(-c2cc(NC[C@H](O)c3ccccc3)ncn2)cc1F [Example 71, (1R)-2-{[6-(3-Fluoro-4-methoxyphenyl)pyrimidin-4-yl]amino}-1-pPhenylethanol] | 76 nM | 14 nM
O[C@@H](CNc1cc(-c2ccc3sccc3c2)ncn1)c1ccccc1 [Example 100, (1R)-2-{[6-(1-Benzothiophen-5-yl)pyrimidin-4-yl]amino}-1-phenylethanol trifluoroacetic acid salt] | 1400 nM | 43 nM
O[C@@H](CNc1cc(-c2ccc(OC(F)(F)F)c(Cl)c2)ncn1)c1ccc(F)cc1 [Example 175, (1R)-2-({6-[3-Chloro-4-(trifluoromethoxy)phenyl]pyrimidin-4-yl}amino)-1-(4-fluorophenyl)ethanol trifluoroacetic acid salt] | 3 nM | 2 nM
COc1nc(NC[C@H](O)c2ccccc2)cc(-c2ccc(C(F)(F)F)c(Cl)c2)n1 [Example 164, (1R)-2-({6-[3-Chloro-4-(trifluoromethyl)phenyl]-2-methoxypyrimidin-4-yl}amino)-1-phenylethanol trifluoroacetic acid salt] | 14 nM | 15 nM
OC(CNc1cc(-c2ccc(OC(F)(F)F)cc2)ncn1)c1ccccc1Cl (centres unmarked) [Example 115, 1-(2-Chlorophenyl)-2-[(6-{4-[(trifluoromethyl)oxy]phenyl}pyrimidin-4-yl)amino]ethanol] | 205 nM | 140 nM
OC(CNc1cc(-c2ccc(OC(F)(F)F)cc2)ncn1)c1ccncc1 (centres unmarked) [Example 125, 1-Pyridin-4-yl-2-[(6-{4-[(trifluoromethyl)oxy]phenyl}pyrimidin-4-yl)amino]ethanol] | 5000 nM | 890 nM
Cc1c(NC[C@H](O)c2ccccc2)ncnc1-c1ccc(C(F)(F)F)c(Cl)c1 [Example 47, (1R)-2-({6-[3-Chloro-4-(trifluoromethyl)phenyl]-5-methylpyrimidin-4-yl}amino)-1-phenylethanol trifluoroacetic acid salt] | 510 nM | 26 nM
C[C@H](Nc1cc(-c2ccc(OC(F)(F)F)cc2)ncn1)[C@H](O)c1ccccc1 [Example 119, (1R,2S)-1-Phenyl-2-[(6-{4-[(trifluoromethyl)oxy]phenyl}pyrimidin-4-yl)amino]propan-1-ol] | 55 nM | 17 nM
NS(=O)(=O)c1ccc(-c2cc(NC[C@H](O)c3ccccc3)ncn2)cc1 [Example 81, 4-(6-{[(2R)-2-Hydroxy-2-phenylethyl]amino}pyrimidin-4-yl)benzenesulfonamide] | 492 nM | 110 nM
O[C@@H](CNc1cc(-c2cccc(C(F)(F)F)c2)ncn1)c1ccccc1 [Example 105, (1R)-1-Phenyl-2-({6-[3-(trifluoromethyl)phenyl]pyrimidin-4-yl}amino)ethanol] | 1000 nM | 190 nM
